Activity calls are given as the source filed them. The calls are words filed in the database; no cut-off is given here.
How the values were obtained:
Oryctolagus cuniculus [1] = species: Oryctolagus cuniculus; assay: Inhibitory activity of PAF-induced aggregation was determined on rabbit platelets; format: functional
[2] = molecular target: T1, Polyunsaturated fatty acid 5-lipoxygenase (Rattus norvegicus, UniProt P12527); assay: Inhibitory activity against 5-lipoxygenase in rat neutrophils as inhibition of A 23,187-induced LTB4 production
T1 sequence (P12527 whole entry): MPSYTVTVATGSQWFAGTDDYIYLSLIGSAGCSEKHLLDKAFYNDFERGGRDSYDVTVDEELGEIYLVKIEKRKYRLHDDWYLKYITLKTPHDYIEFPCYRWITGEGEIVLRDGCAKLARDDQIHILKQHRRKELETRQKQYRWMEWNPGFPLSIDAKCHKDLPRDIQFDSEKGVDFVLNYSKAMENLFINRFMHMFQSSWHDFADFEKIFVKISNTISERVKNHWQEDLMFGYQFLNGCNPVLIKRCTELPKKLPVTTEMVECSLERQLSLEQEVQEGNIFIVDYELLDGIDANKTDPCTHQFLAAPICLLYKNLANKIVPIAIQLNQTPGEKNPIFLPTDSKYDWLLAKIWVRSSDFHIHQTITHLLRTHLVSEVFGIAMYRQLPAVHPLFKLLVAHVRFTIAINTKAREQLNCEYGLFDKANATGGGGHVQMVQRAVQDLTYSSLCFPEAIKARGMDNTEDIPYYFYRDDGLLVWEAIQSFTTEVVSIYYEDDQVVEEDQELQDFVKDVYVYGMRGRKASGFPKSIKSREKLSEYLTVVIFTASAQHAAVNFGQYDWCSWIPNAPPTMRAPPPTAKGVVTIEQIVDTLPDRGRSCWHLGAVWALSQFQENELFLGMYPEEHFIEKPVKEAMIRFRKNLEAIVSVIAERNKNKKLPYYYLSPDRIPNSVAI

[3] = In vivo inhibitory activity of histamine induced cutaneous reaction was determined at a conc. of 2.1E-5 mol/ Kg; format: functional
[4] = In vivo inhibitory activity of histamine induced cutaneous reaction was determined at a conc. of 2.1E-5 mol/ Kg; Not active; format: functional, organism-based
Oryctolagus cuniculus [5] = species: Oryctolagus cuniculus; assay: Inhibitory activity of PAF-induced aggregation was determined on rabbit platelets; Not active at 10e-5 M; format: functional

| SMILES | IC50 (Oryctolagus cuniculus [1]) | IC50 [2] | Inhibition [3] | inhibition [4] | IC50 (Oryctolagus cuniculus [5]) |
| --- | --- | --- | --- | --- | --- |
| Cc1c(-c2ccc(O)cc2)n2c3c(cccc13)OC(CCN1CCN(c3ccccn3)CC1)C2 (stereo not drawn) | 8.1 µM | 2.2 µM | 47% |  |  |
| Cc1ccnc(N2CCN(CCC3Cn4c(-c5cc(C)c(O)c(C)c5)c(C)c5cccc(c54)O3)CC2)c1 (stereo not drawn) | 1.6 µM | 1.5 µM | 15% |  |  |
| Cc1cccc(N2CCN(CCC3Cn4c(-c5ccc(O)cc5)c(C)c5cccc(c54)O3)CC2)n1 (stereo not drawn) | 10.2 µM | 3.3 µM | 39% |  |  |
| Cc1ccc(N2CCN(CCC3Cn4c(-c5ccc(O)cc5)c(C)c5cccc(c54)O3)CC2)nc1 (stereo not drawn) | 9.9 µM | 3.1 µM | 58% |  |  |
| COc1cc2c3c(c1)c(C)c(-c1cc(C)c(O)c(C)c1)n3CC(CCN1CCN(c3cc(C)ccn3)CC1)O2 (stereo not drawn) | 2.9 µM | 7.6 µM | 32% |  |  |
| Cc1ccnc(N2CCN(CCC3Cn4c(-c5ccc(O)cc5)c(C)c5cccc(c54)O3)CC2)c1 (stereo not drawn) | 2.7 µM | 3 µM | 10% |  |  |
| Cc1ccnc(N2CCN(CCC3Cn4c(-c5cc(C)c(O)c(C)c5)c(C)c5cc(O)cc(c54)O3)CC2)c1 (stereo not drawn) | 0.45 µM | 0.29 µM | 37% |  |  |
| Cc1cccnc1N1CCN(CCC2Cn3c(-c4ccc(O)cc4)c(C)c4cccc(c43)O2)CC1 (stereo not drawn) | 7.2 µM | 2.3 µM | 57% |  |  |
| COc1cc(-c2c(C)c3cccc4c3n2CC(CCN2CCN(c3cc(C)ccn3)CC2)O4)ccc1O (stereo not drawn) | 5 µM | 3.2 µM | 2% |  |  |
| Cc1ccnc(N2CCN(CCC3Cn4c(-c5ccc(O)c(O)c5)c(C)c5cccc(c54)O3)CC2)c1 (stereo not drawn) | 4.7 µM | 1.9 µM |  | inactive |  |
| COc1ccc2[nH]c(-c3cc(C)c(O)c(C)c3)c(C)c2c1 |  | 0.11 µM |  | inactive | Not Active |
